Results published in patent EP1568690A1, “The use of carbocyclic and heterocyclic substituted semicarbazones and thiosemicarbazones as sodium channel blockers” (Euro-Celtique S.A., priority 1997, dated 1998).
Where two headings read alike, the source gives them in different places.

Tests used:
[1] = tested on: maximal electroshock-induced seizures (MES); test: Maximal electroshock-induced seizure (MES) test; type: in vivo; conditions: mice; for MES (ED50 mg/kg): 30 min; for ED50: Mus musculus, po, 0.5 h
Experimental: Mice were restrained by gripping the loose skin on their dorsal surface and saline-coated corneal electrodes were held lightly against the two cornea. […] A tonic seizure was defined as a hindlimb extension in excess of 90 degrees from plane of the body.
4-(3,4-Methylenedioxyphenoxy)benzaldehyde semicarbazone was administered orally to mice 30 min before the test procedure. […]

formalin test in mice = test: Formalin test (antinociceptive activity, time licking/biting injected paw); type: in vivo; conditions: Mus musculus
Experimental: Analgesic activity of 4-(4-fluorophenoxy)benzaldehyde semicarbazone was assessed in the formalin test. The method of Hunskaar, et al., J. Neurosci. Method 14:69-76 (1985), was used with some modifications as described in the following.
Mice were placed in Plexiglas jars for at least 1 h to accommodate to experimental conditions. Following the accommodation period, mice were weighed and injected with 4-(4-Fluorophenoxy)benzaldehyde semicarbazone by i.p. or p.o. administration. Control mice were injected with saline (10 ml/kg). Fifteen min (i.p.) or 30 min (p.o.) following 4-(4-fluorophenoxy)benzaldehyde semicarbazone administration mice were injected with formalin ([…] of 5% formaldehyde solution in saline) into the dorsal surface of the right hand paw. Mice were immediately transferred to the Plexiglas jars and the amount of time that each mouse spent licking and/or biting the injected paw was recorded for every 5-min period over the 1 h observation period. The data presented here are at 0-5 min (early phase) and from 5-60 min (late phase) following formalin injections. The late phase of the formalin test is the average of eleven 5-min periods.
The compound has a potency of ED50 about 5-10 mg/kg by both routes of administration.

[2] = tested on: voltage-sensitive Na^+ channels; test: Electrophysiological assay: whole-cell patch-clamp of Na^+ currents in acutely dissociated hippocampal neurons; type: cell-based, rat
Experimental: Cell preparation: Acute cultures of rat hippocampal neurons were prepared daily using a modification of procedures described previously (Kuo and Bean, Mol. Pharm. 46:716-725 (1994)). Briefly, hippocampi were isolated from 3-11 day old rat pup brains (Sprague-Dawley; Charles River) and were sectioned, by hand, into 0.5 - 1 mm thick transverse slices (Whittemore and Koerner, Eur. J. Pharm. 192:435-438 (1991)). Slices were incubated for at least 30 min at room temperature (20 - 24 °C) in an oxygenated medium (124 mM NaCl, 3.3 mM KCl, 2.4 mM MgSO4, 2.5 mM CaCl2, 1.2 mM KH2PO4, 26 mM NaHCO3, pH = 7.4) continuously bubbled with 5% CO2 / 95 % O2. […]
Patch-clamp recordings of voltage-sensitive Na^+ currents: Whole-cell voltage-clamp recordings were made using conventional patch-clamp technique (Hamill et al., Pfluegers Arch. 391:85-100 (1981)) with an Axopatch 200A amplifier (Axon Instruments, Foster City, CA). […] Currents were recorded at room temperature (22-25°C), filtered at 5 kHz with 4-pole Bessel filter, digitized at 20-50-µs intervals, and stored using Digidata 1200 analog/digital interface with Pclamp6/Clampex software (Axon Instruments). […] The inhibitory potency of drugs was assessed by measuring reductions in the peak amplitude of Na^+ currents induced by increasing concentrations of compounds tested. […]

Na^+ channel Site 1 = type: binding; conditions: [^3H] saxitoxin, rat forebrain membranes
Na^+ channel Site 2 = type: binding; conditions: [^3H] batrachotoxin, rat forebrain membranes
[3] = determined as described in example 38
[4] = determined as described in example 38, read-out: MES (ED50 mg/kg)

In the case of “4-(4-fluorophenyl)benzaldehyde 2'-methylsemicarbazone”, the “MES (ED50 mg/kg)” value [1, 3] is reported as 1.5 mg/kg.
Compound `CN(NCc1ccc(Oc2ccc(F)cc2)cc1)C(N)=O` [2'-methyl-4-(4-flourophenoxy)phenylmethylsemicarbazide] has an ED50 [1, 4] of 3.2 mg/kg.
Compound `NC(=O)NN=Cc1ccc(-c2ccc(F)cc2)c(F)c1` [3-fluoro-4-(4-fluorophenyl)benzaldehyde semicarbazone] has an ED50 [1, 4] of 3 mg/kg.
`NC(=O)NN=Cc1ccc(Oc2ccc3c(c2)OCO3)cc1` [4-(3,4-methylenedioxyphenoxy)benzaldehyde semicarbazone] showed an ED50 ([1]; read-out: ED50 (the dose provided protection of 50% of animals), administered orally 30 min before the test) of 5.3 mg/kg and an ED50 [1, 4] of 3.4 mg/kg.
`CN(N=Cc1ccc(Oc2ccc(F)cc2)c(F)c1)C(N)=O` [4-(4-Fluorophenoxy)-3-fluorobenzaldehyde 2'-methylsemicarbazone] gave an ED50 [1, 4] of 0.9 mg/kg.
With `CCCCOc1ccc(Oc2ccc(C=NNC(N)=O)cc2)cc1` [4-(4-butoxyphenoxy)benzaldehyde semicarbazone] the ED50 [1, 4] was 14.9 mg/kg.
`NC(=O)NN=Cc1ccc(Oc2ccc(F)cc2)cc1` [4-(4-fluorophenoxy)benzaldehyde semicarbazone] gave an ED50 [1, 4] of 1.6 mg/kg, an ED50 (formalin test in mice; ip, 0.25 h, i.p., formalin 15 min after administration) of 5 to 10 mg/kg and an ED50 (formalin test in mice; po, 0.5 h, p.o., formalin 30 min after administration) of 5 to 10 mg/kg. For the same compound, the “effect on Na^+ currents” value ([2]; concentrations between 0.1 - 10 µM, holding membrane voltage of -100 mV) was “very little effect”, the Kd ([2]; for inactivated Na^+ channels, read-out: apparent antagonist dissociation constant (Kd)) was roughly 0.6 µM and the IC50 (Na^+ channel Site 1) was greater than 100 µM. For the same compound, the IC50 (Na^+ channel Site 2) was 22 µM.
For `NC(=O)NNCc1ccc(Oc2ccc(F)cc2)cc1` [4-(4-fluorophenoxy)phenylmethylsemicarbazide], the “MES (ED50 mg/kg)” value [1, 3] was 4.2 mg/kg.
Work on `NC(=O)NN=Cc1ccc(Oc2ccc3c(c2)CCC3)cc1` [4-(5-indanoxy)benzaldehyde semicarbazone, 4-(5-Indanoxy)benzaldehyde semicarbazone] yielded an ED50 [1, 4] of 1.7 mg/kg.
`NC(=O)NN=Cc1ccc(OC2CCCCCC2)cc1` [4-cycloheptoxybenzaldehyde semicabazone, 4-Cycloheptyloxybenzaldehyde semicarbazone] was tested, and the ED50 [1, 4] was 3.2 mg/kg.
With `CCN(CC)CC(=O)Nc1c(C)cccc1C` [Lidocaine, reference compound] the IC50 (Na^+ channel Site 1) was greater than 100 µM and the IC50 (Na^+ channel Site 2) was 29.9 µM.
